Reference: ChEMBL document CHEMBL5614416, “Discovery of novel thiophene[3,2-d]pyrimidine-based tubulin inhibitors with enhanced antitumor efficacy for combined use with anti-pd-l1 immunotherapy in melanoma” (Eur J Med Chem, 2024)
Activity calls are given as the source filed them. The calls are words filed in the database; no cut-off is given here.

What was measured:
[1] = tested on: HeLa; assay: Antiproliferative activity against human HeLa cells incubated for 48 hrs by MTT assay; assay type: functional, cell-based
[2] = tested on: MCF7; assay: Antiproliferative activity against human MCF7 cells incubated for 48 hrs by MTT assay; assay type: functional, cell-based; details: MCF7, 48 h
[3] = tested on: NCI-H23; assay: Antiproliferative activity against human NCI-H23 cells incubated for 48 hrs by MTT assay; assay type: functional, cell-based; details: NCI-H23, 48 h
[4] = tested on: B16-F10; assay: Induction of cell cycle arrest in mouse B16-F10 cells assessed as accumulation of cells at G2 phase at 0.5 nM incubated for 12 hrs by flow cytometry (reference value: 13.6 %); assay type: functional
[5] = tested on: B16-F10; assay: Induction of cell cycle arrest in mouse B16-F10 cells assessed as accumulation of cells at S phase at 2 nM incubated for 12 hrs by flow cytometry (reference value: 30.5 %); assay type: functional
[6] = tested on: B16-F10; assay: Induction of cell cycle arrest in mouse B16-F10 cells assessed as accumulation of cells at G2 phase at 2 nM incubated for 12 hrs by flow cytometry (reference value: 13.6 %); assay type: functional
[7] = tested on: B16-F10; assay: Induction of apoptosis in mouse B16-F10 cells assessed as viable cells at 0.5 nM incubated for 12 hrs by Annexin V-FITC/PI staining based flow cytometry (reference value: 93.6 %); assay type: functional; details: read-out: Activity
[8] = tested on: B16-F10; assay: Induction of apoptosis in mouse B16-F10 cells assessed as early apoptotic cells at 0.5 nM incubated for 12 hrs by Annexin V-FITC/PI staining based flow cytometry (reference value: 3.81 %); assay type: functional
[9] = tested on: B16-F10; assay: Induction of apoptosis in mouse B16-F10 cells assessed as late apoptotic cells at 0.5 nM incubated for 12 hrs by Annexin V-FITC/PI staining based flow cytometry (reference value: 2.39 %); assay type: functional
[10] = tested on: B16-F10; assay: Induction of apoptosis in mouse B16-F10 cells assessed as viable cells at 1 nM incubated for 12 hrs by Annexin V-FITC/PI staining based flow cytometry (reference value: 93.6 %); assay type: functional; details: read-out: Activity
[11] = tested on: B16-F10; assay: Induction of apoptosis in mouse B16-F10 cells assessed as late apoptotic cells at 1 nM incubated for 12 hrs by Annexin V-FITC/PI staining based flow cytometry (reference value: 2.39 %); assay type: functional
[12] = tested on: B16-F10; assay: Induction of apoptosis in mouse B16-F10 cells assessed as viable cells at 2 nM incubated for 12 hrs by Annexin V-FITC/PI staining based flow cytometry (reference value: 93.6 %); assay type: functional; details: read-out: Activity
[13] = tested on: B16-F10; assay: Induction of apoptosis in mouse B16-F10 cells assessed as late apoptotic cells at 2 nM incubated for 12 hrs by Annexin V-FITC/PI staining based flow cytometry (reference value: 2.39 %); assay type: functional
[14] = tested on: B16-F10; assay: Inhibition of cell migration in mouse B16-F10 cells assessed as migration rate at 1 nM incubated for 24 hrs by wound healing assay (reference value: 61.1 %); assay type: functional; set-up: scale not given: the % may be the effect or the level left
[15] = tested on: B16-F10; assay: Inhibition of cell migration in mouse B16-F10 cells assessed as migration rate at 4 nM incubated for 24 hrs by wound healing assay (reference value: 61.1 %); assay type: functional; set-up: scale not given: the % may be the effect or the level left
[16] = tested on: B16-F10; assay: Induction of apoptosis in mouse B16-F10 cells assessed as decrease in Bcl-2 level upto 30 nM incubated for 24 hrs by Western blot analysis; assay type: functional, cell-based
[17] = tested on: B16-F10; assay: Induction of apoptosis in mouse B16-F10 cells assessed as increase in Bax level upto 30 nM incubated for 24 hrs by Western blot analysis; assay type: functional, cell-based
[18] = tested on: MCF7; assay: Induction of apoptosis in human MCF7 cells assessed as decrease in Bcl-2 level upto 30 nM incubated for 24 hrs by Western blot analysis; assay type: functional, cell-based
[19] = tested on: B16-F10; assay: Antitumor activity against mouse B16-F10 cells xenografted in C57 mouse at 7 mg/kg, ip qd for 12 days relative to control; assay type: functional; details: B16-F10, 288 h, time 12 day, read-out: TGI
[20] = Toxicity in C57 mouse xenografted with mouse B16-F10 cells assessed as body weight change at 3.5 mg/kg, ip qd for 12 days in presence of NP-19; assay type: organism-based; details: in vivo, 288 h, time 12 day
[21] = Toxicity in C57 mouse xenografted with mouse B16-F10 cells assessed as morphological abnormality in liver at 3.5 mg/kg, ip qd for 12 days in presence of NP-19 by H and E staining based analysis; assay type: organism-based; details: in vivo, 288 h, time 12 day
[22] = Toxicity in C57 mouse xenografted with mouse B16-F10 cells assessed as morphological abnormality in liver at 7 mg/kg, ip qd for 12 days by H and E staining based analysis; assay type: organism-based; details: in vivo, 288 h, time 12 day
[23] = Toxicity in C57 mouse xenografted with mouse B16-F10 cells assessed as MCV level at 7 mg/kg, ip qd for 12 days by biochemical analysis (reference value: 15.800 to 48.900 fL); assay type: organism-based; details: in vivo, 288 h, time 12 day
[24] = Toxicity in C57 mouse xenografted with mouse B16-F10 cells assessed as basophil count at 7 mg/kg, ip qd for 12 days by biochemical analysis (reference value: 0.060 to 25.500 10^9/L); assay type: organism-based; details: in vivo, 288 h, time 12 day
[25] = Toxicity in C57 mouse xenografted with mouse B16-F10 cells assessed as lymphocytes level at 7 mg/kg, ip qd for 12 days by biochemical analysis (reference value: 7.300 to 65.500 %); assay type: organism-based; details: in vivo, 288 h, time 12 day
[26] = Toxicity in C57 mouse xenografted with mouse B16-F10 cells assessed as RDW-CV at 7 mg/kg, ip qd for 12 days by biochemical analysis (reference value: 14.300 to 14.300); assay type: organism-based; details: in vivo, 288 h, time 12 day
[27] = Toxicity in C57 mouse xenografted with mouse B16-F10 cells assessed as MCV level at 3.5 mg/kg, ip qd for 12 days in presence of NP-19 by biochemical analysis (reference value: 15.800 to 48.900 fL); assay type: organism-based; details: in vivo, 288 h, time 12 day
[28] = Toxicity in C57 mouse xenografted with mouse B16-F10 cells assessed as basophil count at 3.5 mg/kg, ip qd for 12 days in presence of NP-19 by biochemical analysis (reference value: 0.060 to 25.500 10^9/L); assay type: organism-based; details: in vivo, 288 h, time 12 day
[29] = Toxicity in C57 mouse xenografted with mouse B16-F10 cells assessed as lymphocytes level at 3.5 mg/kg, ip qd for 12 days in presence of NP-19 by biochemical analysis (reference value: 7.300 to 65.500 %); assay type: organism-based; details: in vivo, 288 h, time 12 day
[30] = Toxicity in C57 mouse xenografted with mouse B16-F10 cells assessed as eosinophil level at 3.5 mg/kg, ip qd for 12 days in presence of NP-19 by biochemical analysis (reference value: 0.700 to 1.000 %); assay type: organism-based; details: in vivo, 288 h, time 12 day
[31] = Toxicity in C57 mouse xenografted with mouse B16-F10 cells assessed as RDW-CV at 3.5 mg/kg, ip qd for 12 days in presence of NP-19 by biochemical analysis (reference value: 14.300 to 14.300); assay type: organism-based; details: in vivo, 288 h, time 12 day
[32] = Toxicity in C57 mouse xenografted with mouse B16-F10 cells assessed as MPV level at 3.5 mg/kg, ip qd for 12 days in presence of NP-19 by biochemical analysis (reference value: 6.200 to 15.000); assay type: organism-based; details: in vivo, 288 h, time 12 day
[33] = Toxicity in C57 mouse xenografted with mouse B16-F10 cells assessed as PCT level at 3.5 mg/kg, ip qd for 12 days in presence of NP-19 by biochemical analysis (reference value: 0.425 to 5.300); assay type: organism-based; details: in vivo, 288 h, time 12 day

For `Cc1nc(N(C)c2ccc3c(ccn3C)c2)c2sccc2n1`, the IC50 [1] was 5.37 nM, the IC50 [2] was 9.53 nM and the IC50 [3] was 8.94 nM. The Activity [4] was 58.9%, the Activity [5] was 19.3% and the Activity [6] was 72.8%. For the same compound, the viability at 0.0005 µM [7] was 80.1%, the Activity [8] was 11.2% and the Activity [9] was 7.06%. It also gave a viability at 0.001 µM [10] of 77.1%, an Activity [11] of 7.92% and a viability at 0.002 µM [12] of 75%. It also gave an Activity [13] of 8.65%, an Activity [14] of 57.5% and an Activity [15] of 5.23%. For the same compound, the Activity [16] was “Active”, the Activity [17] was “Active” and the Activity [18] was “Active”. For the same compound, the inhibition in vivo at 7 mg/kg [19] was 63.3%, the Activity [20] was “Non-Toxic” and the Activity [21] was “Non-Toxic”. The Activity [22] was “Non-Toxic”, the Activity [23] was 15.8 fL and the Activity [24] was 0.01 10^9/L. The Activity [25] was 2.2%, the Activity [26] was 14.2 and the Activity [27] was 15.7 fL. The Activity [28] was 0.01 10^9/L, the Activity [29] was 2.4% and the Activity [30] was 0.3%. It also gave an Activity [31] of 14, an Activity [32] of 6 and an Activity [33] of 0.179.
